Measurements taken from patent US8951563B2, “Antibiotic drug delivery and potentiation” (Technion Research & Development Foundation Limited, priority 2009, dated 2015).
≈ marks a conversion by molar mass, not a printed value.

What was measured:
[1] = Cochleate formation by light microscopy; assay type: physicochemical; set-up: key: or above (E!); excellent (E); good (G); poor (P); none (N)
Protocol: Lipid films containing binary mixtures of lipids were made from aliquots of stock solutions in chloroform:methanol (2:1). The solvent was evaporated with a stream of nitrogen gas and the lipids deposited as a film on the walls of a glass tube. The tubes were then placed in a vacuum dessicator for 3 hours. The films were kept under Argon at −20° C. The lipid films were hydrated with buffer solutions of OAK polymers with extensive vortexing, so as to have a lipid to polymer molar ratio of […].
Hydrated films were subjected to freeze thawing three times before imaging, to ensure proper equilibration of OAK with the multilamellar vesicles. A drop of this mixture was placed on a glass slide and covered with a glass coverslip. Light microscopy was carried out at room temperature using a Zeiss Axiovert 100M microscope with a Plan-Neofluar 100×/1.3 oil immersion objective. Images were analyzed with the Zeiss LSM image browser v2.8.
The morphology of the samples of different OAKs and different lipid mixtures could be classified into the following categories.
Table 5 presents the results of cochleate formation with different lipid mixtures of 1:10 lipid to polymer ratio, and a series of OAK polymers, indicated by their alternative denotations and SED ID Nos in parentheses. “Tm” denotes the melting temperature of the lipid bilayer afforded by the given lipid mixture. Some selected samples were further analyzed to confirm the results with freeze fracture electron microscopy for, as indicated in Table 5. Cochleate formation is defined as excellent (E) or above (E!), good (G), poor (P), or none (N) based on the aforementioned comparison, as well as on the abundance of cochleate structures observed in the light microscopy images. Lipid mixtures having a number in parenthesis are samples for which freeze-fracture electron microscopy analysis was conducted. Lipid mixtures having a “+” sign next to the number in parenthesis are samples which were confirmed by freeze-fracture electron microscopy as forming large cochleates with few vesicles and no inverted micellar (HII) morphology (samples 2, 3 and 5), or smaller cochleate structures mixed with other morphologies (samples 0 and 4). Lipid mixtures which contain only anionic lipids are marked with “^A”. Sample 0 is the lipid/OAK system used and presented in Example 1 hereinabove.

[2] = Molecular charge and RP-HPLC hydrophobicity of polymers; assay type: physicochemical; conditions: HPLC-RP gradient mobile phase
Excerpt: Briefly, the polymers were synthesized while applying the Fmoc active ester chemistry on a fully automated, programmable peptide synthesizer (Applied Biosystems 433A). After cleavage from the resin, the crude product was extracted with 30% acetonitrile in water and purified by RP-HPLC (Alliance Waters), so as to obtain a chromatographic homogeneity higher than 95%. HPLC runs were typically performed on C18 columns (Vydac, 250 mm×4.6 or 10 mm) using a linear gradient of acetonitrile in water (1% per minute), both solvents containing 0.1% trifluoroacetic acid. The purified polymers were subjected to mass spectrometry (ZQ Waters) and NMR analyses to confirm their composition, and stored as a lyophilized powder at −20° C. Prior to being tested, fresh solutions were prepared in water, vortexed, sonicated, centrifuged and then diluted in the appropriate medium.
“Q” represents the overall molecular charge at physiological pH; “ACN (%)” represents the percent of acetonitrile in the HPLC-RP gradient mobile phase at which the polymer was eluted and which corresponds to the estimated hydrophobicity of the polymer. The column headed by “Ref.” indicates prior reference of the OAK if present, wherein a number in parentheses “(##)” corresponds to the SEQ ID NO in U.S. Pat. No. 7,504,381; the letter “R” indicates a polymer published in Radzishevsky I. S. et al. (2008), Chem. Biol., 15(4), pp. 354-362; and “New” indicates a novel polymer disclosed herein.

[3] = test system: A. aureus; assay type: cell-based
Protocol: (§1) All bacteria were cultured in Luria-Bertani (LB) medium (10 g/l tryptone, 5 g/l yeast extract, 5 g/l NaCl, pH 7.4).
(§2) Bacteria were grown overnight in LB growth medium and diluted 10,000-fold in same medium.
(§3) Inhibition of proliferation was determined by optical density measurements (620 nm) after incubation overnight at 37° C.

[4] = test system: E. coli; assay type: cell-based
Protocol: as §1, §2, §3

[5] = DMPE:DOPG 75:25, 1:10 lipid to polymer ratio
[6] = POPE:TOCL 75:25, 1:10 lipid to polymer ratio
[7] = DMPC:TOCL 75:25, 1:10 lipid to polymer ratio
[8] = DMPE:TOCL 75:25, 1:10 lipid to polymer ratio
[9] = DMPG:TOCL 75:25 (anionic lipids only), 1:10 lipid to polymer ratio
[10] = DOPE:TOCL 75:25, 1:10 lipid to polymer ratio
[11] = DPPE:TOCL 75:25, 1:10 lipid to polymer ratio
[12] = POPC:TOCL 75:25, 1:10 lipid to polymer ratio
[13] = POPE:DOPG 75:25, 1:10 lipid to polymer ratio
[14] = POPG:TOCL 75:25 (anionic lipids only), 1:10 lipid to polymer ratio
[15] = POPE:DOPG:TOCL 80:15:5, 1:10 lipid to polymer ratio
[16] = DMPE:TOCL75:25, 10:1 lipid to polymer ratio (Table 6)
[17] = POPE:TOCL 75:25, 10:1 lipid to polymer ratio (Table 6)

CCCCCCCCCCCC(=O)N[C@@H](CCCCN)C(=O)NCCCCCCCC(=O)N[C@@H](CCCCN)C(=O)NCCCCCCCC(=O)N[C@@H](CCCCN)C(=O)NCCCCCCCC(=O)N[C@@H](CCCCN)C(=O)NCCCCCCCC(=O)N[C@@H](CCCCN)C(=O)NCCCCCCCC(=O)N[C@@H](CCCCN)C(=O)NCCCCCCCC(=O)N[C@@H](CCCCN)C(N)=O [C12K-6α8, C12K(NC8K)6NH2]
Cochleate formation [1, 5]: G
Cochleate formation [1, 6]: G
ACN (%) (percent acetonitrile at elution, estimated hydrophobicity) [2]: 50%
MIC A. aureus [3]: 50 µM (≈ 97.2 µg/mL)
MIC E. coli [4]: 3.1 µM (≈ 6.03 µg/mL)

CCCCCCCCCCCC(=O)NC(CCCCN)C(=O)NCCCCCCCC(=O)NC(CCCCN)C(=O)NCCCCCCCC(=O)NC(CCCCN)C(=O)NCCCCCCCC(=O)NC(CCCCN)C(=O)NCCCCCCCC(=O)NC(CCCCN)C(=O)NCCCCCCCC(=O)NC(CCCCN)C(=O)NCCCCCCCC(=O)NC(CCCCN)C(=O)NCCCCCCCC(=O)NC(CCCCN)C(=O)NCCCCCCCC(=O)NC(CCCCN)C(=O)NCCCCCCCC(=O)NC(CCCCN)C(N)=O (stereo not drawn) [C12K-9α8, C12K(NC8K)9NH2]
Cochleate formation [1, 7]: N
Cochleate formation [1, 5]: E!
Cochleate formation [1, 8]: E
Cochleate formation [1, 9]: N
Cochleate formation [1, 10]: G
Cochleate formation [1, 11]: E
Cochleate formation [1, 12]: N
Cochleate formation [1, 13]: G
Cochleate formation [1, 6]: G
Cochleate formation [1, 14]: P
ACN (%) (percent acetonitrile at elution, estimated hydrophobicity) [2]: 48.4%
MIC A. aureus [3]: >50 µM
MIC E. coli [4]: 6.25 µM (≈ 17.2 µg/mL)

CCCCCCCCCCCC(=O)NC(CCCCN)C(=O)NCCCCCCCC(=O)NC(CCCCN)C(=O)NCCCCCCCC(=O)NC(CCCCN)C(=O)NCCCCCCCC(=O)NC(CCCCN)C(=O)NCCCCCCCC(=O)NC(CCCCN)C(=O)NCCCCCCCC(=O)NC(CCCCN)C(=O)NCCCCCCCC(=O)NC(CCCCN)C(=O)NCCCCCCCC(=O)NC(CCCCN)C(=O)NCCCCCCCC(=O)NC(CCCCN)C(N)=O (stereo not drawn) [C12K-8α8, C12K(NC8K)8NH2]
Cochleate formation [1, 5]: G
Cochleate formation [1, 8]: E
Cochleate formation [1, 10]: G
Cochleate formation [1, 11]: E
Cochleate formation [1, 13]: N
Cochleate formation [1, 15]: N
Cochleate formation [1, 6]: G
ACN (%) (percent acetonitrile at elution, estimated hydrophobicity) [2]: 48.5%
MIC A. aureus [3]: >50 µM
MIC E. coli [4]: 3.1 µM (≈ 7.7 µg/mL)

CCCCCCCCCCCC(=O)N[C@@H](CCCCN)C(=O)NCCCCCCCC(=O)N[C@@H](CCCCN)C(=O)NCCCCCCCC(=O)N[C@@H](CCCCN)C(=O)NCCCCCCCC(=O)N[C@@H](CCCCN)C(=O)NCCCCCCCC(=O)N[C@@H](CCCCN)C(=O)NCCCCCCCC(=O)N[C@@H](CCCCN)C(N)=O [C12K-5α8, C12K(NC8K)5NH2]
Cochleate formation [1, 7]: N
Cochleate formation [1, 5]: E
Cochleate formation [1, 8]: P
Cochleate formation [1, 9]: G
Cochleate formation [1, 10]: N
Cochleate formation [1, 11]: E
Cochleate formation [1, 12]: P
Cochleate formation [1, 13]: G
Cochleate formation [1, 15]: N
Cochleate formation [1, 6]: G
Cochleate formation [1, 14]: P
ACN (%) (percent acetonitrile at elution, estimated hydrophobicity) [2]: 49.7%
MIC A. aureus [3]: 50 µM (≈ 83.7 µg/mL)
MIC E. coli [4]: 3.1 µM (≈ 5.19 µg/mL)

CCCCCCCCCCCC(=O)NC(CCCCN)C(=O)NCCCCCCCC(=O)NC(CCCCN)C(=O)NCCCCCCCC(=O)NC(CCCCN)C(=O)NCCCCCCCC(=O)NC(CCCCN)C(=O)NCCCCCCCC(=O)NC(CCCCN)C(=O)NCCCCCCCC(=O)NC(CCCCN)C(=O)NCCCCCCCC(=O)NC(CCCCN)C(=O)NCCCCCCCC(=O)NC(CCCCN)C(=O)NCCCCCCCC(=O)NC(CCCCN)C(=O)NCCCCCCCC(=O)NC(CCCCN)C(=O)NCCCCCCCC(=O)NC(CCCCN)C(=O)NCCCCCCCC(=O)NC(CCCCN)C(N)=O (stereo not drawn) [C12K-11α8, C12K(NC8K)11NH2]
Cochleate formation [1, 5]: E
Cochleate formation [1, 8]: G
Cochleate formation [1, 10]: G
Cochleate formation [1, 11]: P
Cochleate formation [1, 12]: P
Cochleate formation [1, 13]: P
Cochleate formation [1, 6]: G
Cochleate formation [1, 14]: N
ACN (%) (percent acetonitrile at elution, estimated hydrophobicity) [2]: 42.2%
MIC A. aureus [3]: >50 µM
MIC E. coli [4]: 3.1 µM (≈ 10.2 µg/mL)

CCCCCCCCCCCC(=O)N[C@@H](CCCCN)C(=O)NCCCCCCCCCCCC(=O)N[C@@H](CCCCN)C(=O)NCCCCCCCCCCCC(=O)N[C@@H](CCCCN)C(=O)NCCCCCCCCCCCC(=O)N[C@@H](CCCCN)C(=O)NCCCCCCCCCCCC(=O)N[C@@H](CCCCN)C(=O)NCCCCCCCCCCCC(=O)N[C@@H](CCCCN)C(=O)NCCCCCCCCCCCC(=O)N[C@@H](CCCCN)C(=O)NCCCCCCCCCCCC(=O)N[C@@H](CCCCN)C(N)=O [C12K-7α12, C12K(NC12K)7NH2]
Cochleate formation [1, 16]: P
Cochleate formation [1, 17]: N
ACN (%) (percent acetonitrile at elution, estimated hydrophobicity) [2]: 55.2%
MIC A. aureus [3]: >50 µM
MIC E. coli [4]: >50 µM

NCCCCCCCCCCCC(=O)NC(CCCCN)C(=O)NCCCCCCCC(=O)NC(CCCCN)C(=O)NCCCCCCCC(=O)NC(CCCCN)C(=O)NCCCCCCCC(=O)NC(CCCCN)C(=O)NCCCCCCCC(=O)NC(CCCCN)C(=O)NCCCCCCCC(=O)NC(CCCCN)C(=O)NCCCCCCCC(=O)NC(CCCCN)C(=O)NCCCCCCCC(=O)NC(CCCCN)C(N)=O (stereo not drawn) [α12-7α8, NC12K(NC8K)7NH2]
Cochleate formation [1, 16]: E
Cochleate formation [1, 17]: G-E
ACN (%) (percent acetonitrile at elution, estimated hydrophobicity) [2]: 36.9%
MIC A. aureus [3]: 50 µM (≈ 111 µg/mL)
MIC E. coli [4]: 12.5 µM (≈ 27.9 µg/mL)

CCCCCCCCCCCC(=O)N[C@@H](CCCCN)C(=O)NCCCC(=O)N[C@@H](CCCCN)C(=O)NCCCC(=O)N[C@@H](CCCCN)C(=O)NCCCC(=O)N[C@@H](CCCCN)C(=O)NCCCC(=O)N[C@@H](CCCCN)C(=O)NCCCC(=O)N[C@@H](CCCCN)C(=O)NCCCC(=O)N[C@@H](CCCCN)C(=O)NCCCC(=O)N[C@@H](CCCCN)C(N)=O [C12K-7α4, C12K(NC4K)7NH2]
Cochleate formation [1, 16]: G
Cochleate formation [1, 17]: G-E
ACN (%) (percent acetonitrile at elution, estimated hydrophobicity) [2]: 45.2%
MIC A. aureus [3]: >50 µM
MIC E. coli [4]: 12.5 µM (≈ 22.8 µg/mL)
